Here are results for 14 molecules from patent USRE32098E (Research and Education Institute, Inc., priority 1978, dated 1986).

Where a name gives a salt, the structure may show the parent alone. Read-outs that look alike come from different tables or passages of the source. Where only a bound is given, the exact number is not on record here.

In series [1] the target is T1, TBG (thyroxine-binding globulin) (Homo sapiens, UniProt P05543).
T1 construct: from tissue; host or cells: human serum, diluted 1/32
T1 sequence (P05543 21-415): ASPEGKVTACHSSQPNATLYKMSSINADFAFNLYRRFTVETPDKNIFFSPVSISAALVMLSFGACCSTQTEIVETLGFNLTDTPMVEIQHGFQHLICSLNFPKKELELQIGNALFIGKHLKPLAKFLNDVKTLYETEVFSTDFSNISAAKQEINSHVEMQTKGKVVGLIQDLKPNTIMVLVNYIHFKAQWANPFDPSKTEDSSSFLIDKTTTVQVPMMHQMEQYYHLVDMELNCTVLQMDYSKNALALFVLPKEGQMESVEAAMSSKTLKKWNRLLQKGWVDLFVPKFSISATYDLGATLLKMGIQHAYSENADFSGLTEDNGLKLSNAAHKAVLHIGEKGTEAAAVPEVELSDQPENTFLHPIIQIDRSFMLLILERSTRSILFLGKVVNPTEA
Put plainly: Displacement of radioactive T4 from TBG in a CPBA system. More on the design: AMOUNT T4 DISPLACED FROM TBG: unit not given here.

The target in series [2] is T2, TBG (Homo sapiens, UniProt P05543).
T2 construct: from tissue; host or cells: serum
T2 sequence (P05543 21-415): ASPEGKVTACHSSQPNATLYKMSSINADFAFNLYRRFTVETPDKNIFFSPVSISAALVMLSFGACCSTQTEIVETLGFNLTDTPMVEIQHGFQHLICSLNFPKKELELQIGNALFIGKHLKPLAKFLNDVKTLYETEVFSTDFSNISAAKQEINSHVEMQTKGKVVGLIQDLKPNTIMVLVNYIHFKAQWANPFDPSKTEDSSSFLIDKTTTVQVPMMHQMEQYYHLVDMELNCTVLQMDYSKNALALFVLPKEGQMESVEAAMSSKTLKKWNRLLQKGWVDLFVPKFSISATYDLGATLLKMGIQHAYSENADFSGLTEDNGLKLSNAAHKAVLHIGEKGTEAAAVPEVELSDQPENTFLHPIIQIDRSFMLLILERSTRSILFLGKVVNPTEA
Put plainly: Displacement of radioactive T3 from TBG. It is filed as binding.

A further series has as its system sheep serum TBG. Nature of the series: Adequacy of the amount of ANS in T3 RIA: T3-125I bound to T3-binding antibody in presence of sheep serum and ANS versus plain buffer. The conditions noted are these: 200 ug ANS.
For series [3], the system named is TBG. Nature of the series: T4 RIA standard curves in barbital buffer and in presence of T4-free serum (FIG. 2). The format is binding. To be noted: 25 ul T4-free serum.
In series [4] the test system is thyroxine binding prealbumin (TBPA). Nature of the series: T4 binding by prealbumin.
Series [5] has as its system T3-binding sites on the rabbit antiserum. Nature of the series: Affinity for T3-binding sites on the rabbit antiserum.
A further series can be described thus: Solubility at pH of RIA. It is filed as physicochemical.
Series [6] concerns proteins such as thyroxine-binding globulin (TBG), prealbumin (TBPA) and albumin. To be noted: normal human serum; cited from earlier work.
Series [7] deals with T2, TBG. Put plainly: Maximal T4-binding capacity of TBG in serum (method of Inada and Sterling). The conditions noted are these: 7 euthyroid subjects with high serum TBG.

In the case of `O=C1NC(=S)NC1(c1ccccc1)c1ccccc1` [5,5 diphenyl-2 thiohydantoin], the “AMOUNT T4 DISPLACED FROM TBG” value in series [1] (100 ug blocking agent) was determined as 6.1. Also, the “AMOUNT T3 DISPLACED FROM TBG” value on TBG [2] (10 ug blocking agent) is reported as 7.6 ng.

For the molecule `O=S(=O)(O)c1ccc2cc(N=Nc3ccc(Nc4ccccc4)c4ccccc34)c(S(=O)(=O)O)cc2c1` [ANNDS, 3-(4-anilino-1-napthylazo) 2,7-napthalene disulfonic acid], the “AMOUNT T4 DISPLACED FROM TBG” value in series [1] (50 ug blocking agent) is more than 20. In addition, the “AMOUNT T3 DISPLACED FROM TBG” value at TBG [2] (10 ug blocking agent) came out at 10.4 ng.

As for `O=S(=O)(O)c1cccc2cccc(Nc3ccccc3)c12` [ANS, 8-anilino-1-napthalene-sulfonic acid], in series [1], the “AMOUNT T4 DISPLACED FROM TBG” value was determined as 18, the “T4 displaced from TBG” value is given as 18 nanograms (ng) and the “concentration of T4 in serum up to which all T4 is displaced” value is recorded as not above 72 ug per 100 ml. In addition, at TBG [2], the “AMOUNT T3 DISPLACED FROM TBG” value turned out to be 11.2 ng, the “T3 displaced from TBG” value is 11.2 nanograms (ng), the “concentration of T3 in serum up to which all T3 may be displaced” value is not above 88 ug T3 per 100 ml and the “displacement of T3 bound to TBG” value was “displaces nearly all T3 bound to TBG”. For the same molecule, at TBG [2], the “prevention of binding of radioactive T3 to TBG” value was “prevents completely the binding of radioactive T3 to TBG”. Moreover, the “neutralization of the inhibiting effect of sheep serum TBG” value with sheep serum TBG is “almost complete neutralization”. The “radioactivity bound to antibody relative to that in plain buffer” value with sheep serum TBG (with sheep serum, no stable T3) is given as 95-98%. In the series on TBG [3], the “blocking of TBG in serum” value is recorded as “TBG in the serum was adequately blocked”. Also, the “effect on T4 binding by prealbumin” value in [4] is “affected”. Further, the “affinity for T3-binding sites on the rabbit antiserum” value in [5] was “negligible affinity”. Moreover, in “Solubility at pH of RIA”, the “solubility compared with Dilantin and tetrachlorthyronine” value was “better solubility at pH of RIA”.

As for `CN(C)CCCN1c2ccccc2Sc2ccc(Cl)cc21` [Chlorpromazine HCl], the “AMOUNT T4 DISPLACED FROM TBG” value in series [1] came to 5.6. Besides, on TBG [2], the “AMOUNT T3 DISPLACED FROM TBG” value is 6.6 ng.

In the case of `CN1C(=O)CN=C(c2ccccc2)c2cc(Cl)ccc21` [Diazepam], the “AMOUNT T4 DISPLACED FROM TBG” value in [1] was 6.3. The “AMOUNT T3 DISPLACED FROM TBG” value at TBG [2] was 7.0 ng.

For `O=C1NC(=O)C(c2ccccc2)(c2ccccc2)N1` [Dilantin], the “AMOUNT T4 DISPLACED FROM TBG” value in [1] (100 ug blocking agent) came to 5.7.

With `CN(C)CCC=C1c2ccccc2COc2ccccc21` [Doxepin HCl], in [1], the “AMOUNT T4 DISPLACED FROM TBG” value was 8.2. Moreover, the “AMOUNT T3 DISPLACED FROM TBG” value on TBG [2] was found to be 10.8 ng.

With `CC(=O)NCCOC(=O)C(Oc1cccc(C(F)(F)F)c1)c1ccc(Cl)cc1` (centres unmarked) [Halofenate], in [1] (100 ug blocking agent), the “AMOUNT T4 DISPLACED FROM TBG” value is 8.4. Besides, on TBG [2] (10 ug blocking agent), the “AMOUNT T3 DISPLACED FROM TBG” value is 5.2 ng.

Regarding `CN1CCN(CCCN2c3ccccc3Sc3ccc(Cl)cc32)CC1` [Prochlorperazine], the “AMOUNT T4 DISPLACED FROM TBG” value in series [1] amounted to 7.2. Further, the “AMOUNT T3 DISPLACED FROM TBG” value on TBG [2] was determined as 7.0 ng.

`O=C([O-])c1ccccc1O.[Na+]` [Sodium Salicylate]: the “AMOUNT T4 DISPLACED FROM TBG” value in series [1] was 6.1. Further, the “AMOUNT T3 DISPLACED FROM TBG” value at TBG [2] was 11.0 ng. Besides, in [4], the “effect on T4 binding by prealbumin” value is given as “affected”.

Turning to `N[C@@H](Cc1cc(I)c(Oc2ccc(O)c(I)c2)c(I)c1)C(=O)O` [T3, triiodothyronine], the “present as unbound (dialyzable or free) hormone” value in [6] is listed as 0.3%.

Take `C[CH2][Hg][S]c1ccccc1C(=O)[O-].[Na+]` [Thimerosal]: the “AMOUNT T4 DISPLACED FROM TBG” value in [1] is 8.4. For the same molecule, at TBG [2], the “AMOUNT T3 DISPLACED FROM TBG” value is recorded as 8.0 ng.

Consider `O=S(=O)(O)c1cccc2ccccc12` [αNapthalene Sulfonic Acid], for which the “AMOUNT T4 DISPLACED FROM TBG” value in series [1] (100 ug blocking agent) turned out to be 3.0. Further, on TBG [2] (100 ug blocking agent), the “AMOUNT T3 DISPLACED FROM TBG” value turned out to be 7.0 ng.

B1: TBG: thyroxine-binding globulin, serum protein binding thyroid hormones (protein, UniProt P05543 21-415, looked up)
Thyroxine-binding globulin: ASPEGKVTACHSSQPNATLYKMSSINADFAFNLYRRFTVETPDKNIFFSPVSISAALVMLSFGACCSTQTEIVETLGFNLTDTPMVEIQHGFQHLICSLNFPKKELELQIGNALFIGKHLKPLAKFLNDVKTLYETEVFSTDFSNISAAKQEINSHVEMQTKGKVVGLIQDLKPNTIMVLVNYIHFKAQWANPFDPSKTEDSSSFLIDKTTTVQVPMMHQMEQYYHLVDMELNCTVLQMDYSKNALALFVLPKEGQMESVEAAMSSKTLKKWNRLLQKGWVDLFVPKFSISATYDLGATLLKMGIQHAYSENADFSGLTEDNGLKLSNAAHKAVLHIGEKGTEAAAVPEVELSDQPENTFLHPIIQIDRSFMLLILERSTRSILFLGKVVNPTEA
With B1, in the series with TBG [7], the “maximal T4-binding capacity of TBG (mean)” value is recorded as 46.9 ug per 100 ml.
